# Experimental data taken from US20250188480A1, “AGENT FOR ENHANCING PRODUCTION OF VIRAL VECTOR AND METHOD FOR PRODUCING VIRAL VECTOR” (priority 2022, published 2025).
# Entries after “also recorded” stand apart in the source; their conditions may differ.
# What was measured:
# [1] = system: HEK293 cells producing rAAV1; assay: Evaluation of AAV vector-producing ability by treatment with chemical substance (virus titer by qPCR); type: cell-based, human; conditions: for effects of enhancing the amount of production of AAV vectors (v.g.): HEK293 cells, serum-free E-MEM supplemented with the substance at various concentrations, culture for 3 days, vs untreated control
# Protocol: The cells of the immortalized cell line derived from the human embryonic kidney (HEK293 cells) purchased from ATCC were cultured in E-MEM supplemented with 10% fetal bovine serum, penicillin, and streptomycin at 37° C. in the presence of 5% CO2.
# The recombinant adeno-associated virus 1 (rAAV1) was prepared with the use of 3 types of plasmids: pAAV-ZsGreen1 (TaKaRa Bio), pAAV2/1, and pHelper. A mixture of 3 types of plasmids for preparation of rAAV1 was adjusted to bring the mixing ratio of DNA to Polyethylenimine Max (PEI: Polysciences) (DNA: PEI) to 1:2 in OPTI-MEM, and the reaction was allowed to proceed at room temperature for 15 minutes. After 90% or higher confluent HEK293 cells were transfected with E-MEM supplemented with 10% FBS for 6 hours, culture was performed in serum-free E-MEM to prepare the AAV type 1 vector.
# Genome DNA of rAAV1 was extracted to measure the virus titer. Specifically, the culture supernatant was collected and treated with benzonase at 37° C. for 1 hour, and the viral genome DNA was extracted and purified using the DNeasy Blood & Tissue kit (QIAGEN). The virus titer was measured by real-time PCR in triplicate. qPCR was performed using primers targeting Zs-Green 1.
# The virus titers achieved with the use of the chemical substances were compared with the virus titer of the control cells treated with serum-free E-MEM not supplemented with chemical substances.
# HEK293 cells = conditions: treated for 5 days; HEK293 cells transduced at 1×10^5 v.g./cell, green fluorescence 3 days thereafter, vs vector without treatment
Structure (SMILES),effects of enhancing the amount of production of AAV vectors (v.g.) [1],"amount of production of AAV vectors (v.g.) with the elapse of time ([1]; time after initiation of vector production, observed for 4 to 7 days)",infectious ability of the rAAV vector produced by treatment (HEK293 cells)
[NH3+][Pt-2]1([NH3+])[O]C(=O)C2(CCC2)C(=O)[O]1 [Carboplatin],has effects of enhancing the amount of production of AAV vectors; also recorded: effects of enhancing production of rAAV vectors can be achieved,increasing with the elapse of time,retains the infectious ability equivalent to that of the AAV vector prepared without treatment
N.N.[Cl][Pt][Cl] [Cisplatin],has effects of enhancing the amount of production of AAV vectors; also recorded: effects of enhancing production of rAAV vectors can be achieved,,
[NH2][Pt]1([NH2])[O]CC(=O)[O]1 [Nedaplatin],has effects of enhancing the amount of production of AAV vectors; also recorded: effects of enhancing production of rAAV vectors can be achieved,,
